Experimental data from ChEMBL document CHEMBL1201862, “PubChem BioAssay data set” (2004).
Calls of active or inactive are those of the source.

Legend:
[1] = biological target: T1, Sentrin-specific protease 8 (Homo sapiens, UniProt Q96LD8); type: functional
T1 sequence (Q96LD8 whole entry): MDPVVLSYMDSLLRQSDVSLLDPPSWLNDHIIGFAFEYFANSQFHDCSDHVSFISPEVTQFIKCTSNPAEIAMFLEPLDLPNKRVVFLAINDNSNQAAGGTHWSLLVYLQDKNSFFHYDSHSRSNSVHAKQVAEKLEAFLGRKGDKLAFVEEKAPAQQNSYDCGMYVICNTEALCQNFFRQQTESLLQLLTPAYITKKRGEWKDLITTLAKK

[2] = biological target: Peroxisome proliferator-activated receptor gamma/Nuclear receptor corepressor 2 (Homo sapiens, UniProt P37231+Q9Y618); type: functional
[3] = biological target: T2, Hexokinase HKDC1 (Homo sapiens, UniProt Q2TB90); experiment: HKDC1 hexokinase inhibitors, dose response, biochemical, W721R variant (AID 504729); type: functional
T2 sequence (Q2TB90 whole entry): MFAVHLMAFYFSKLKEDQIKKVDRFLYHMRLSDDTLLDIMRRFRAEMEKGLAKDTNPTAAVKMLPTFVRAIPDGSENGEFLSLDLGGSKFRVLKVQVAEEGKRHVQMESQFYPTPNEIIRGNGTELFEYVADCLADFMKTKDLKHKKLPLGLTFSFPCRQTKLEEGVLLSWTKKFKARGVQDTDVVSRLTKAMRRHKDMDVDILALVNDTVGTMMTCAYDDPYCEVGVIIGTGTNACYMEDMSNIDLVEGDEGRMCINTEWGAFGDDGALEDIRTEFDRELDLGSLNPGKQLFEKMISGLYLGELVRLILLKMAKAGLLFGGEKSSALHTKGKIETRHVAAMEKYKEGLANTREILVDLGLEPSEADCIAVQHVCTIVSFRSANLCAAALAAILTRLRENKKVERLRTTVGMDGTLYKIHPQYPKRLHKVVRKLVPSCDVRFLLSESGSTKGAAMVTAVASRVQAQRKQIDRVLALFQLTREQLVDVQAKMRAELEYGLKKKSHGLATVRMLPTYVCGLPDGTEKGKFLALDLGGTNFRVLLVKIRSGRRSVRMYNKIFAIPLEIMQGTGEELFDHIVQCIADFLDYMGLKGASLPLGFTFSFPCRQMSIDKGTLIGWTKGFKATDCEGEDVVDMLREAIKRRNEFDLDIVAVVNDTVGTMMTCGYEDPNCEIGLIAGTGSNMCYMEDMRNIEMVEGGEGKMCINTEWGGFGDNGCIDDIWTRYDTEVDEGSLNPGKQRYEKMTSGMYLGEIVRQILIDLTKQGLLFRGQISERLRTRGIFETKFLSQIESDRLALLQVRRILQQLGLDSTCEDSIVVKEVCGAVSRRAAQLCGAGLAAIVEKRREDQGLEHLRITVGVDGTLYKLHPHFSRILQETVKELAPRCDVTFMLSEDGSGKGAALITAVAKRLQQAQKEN

[4] = biological target: T3, Tyrosine-protein phosphatase non-receptor type 22 (Homo sapiens, UniProt Q9Y2R2); type: functional;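 note: confirmatory dose-response retest of primary uHTS hits for inhibition of LYP phosphatase, measured by a fluorescence intensity read-out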
T3 sequence (Q9Y2R2 whole entry): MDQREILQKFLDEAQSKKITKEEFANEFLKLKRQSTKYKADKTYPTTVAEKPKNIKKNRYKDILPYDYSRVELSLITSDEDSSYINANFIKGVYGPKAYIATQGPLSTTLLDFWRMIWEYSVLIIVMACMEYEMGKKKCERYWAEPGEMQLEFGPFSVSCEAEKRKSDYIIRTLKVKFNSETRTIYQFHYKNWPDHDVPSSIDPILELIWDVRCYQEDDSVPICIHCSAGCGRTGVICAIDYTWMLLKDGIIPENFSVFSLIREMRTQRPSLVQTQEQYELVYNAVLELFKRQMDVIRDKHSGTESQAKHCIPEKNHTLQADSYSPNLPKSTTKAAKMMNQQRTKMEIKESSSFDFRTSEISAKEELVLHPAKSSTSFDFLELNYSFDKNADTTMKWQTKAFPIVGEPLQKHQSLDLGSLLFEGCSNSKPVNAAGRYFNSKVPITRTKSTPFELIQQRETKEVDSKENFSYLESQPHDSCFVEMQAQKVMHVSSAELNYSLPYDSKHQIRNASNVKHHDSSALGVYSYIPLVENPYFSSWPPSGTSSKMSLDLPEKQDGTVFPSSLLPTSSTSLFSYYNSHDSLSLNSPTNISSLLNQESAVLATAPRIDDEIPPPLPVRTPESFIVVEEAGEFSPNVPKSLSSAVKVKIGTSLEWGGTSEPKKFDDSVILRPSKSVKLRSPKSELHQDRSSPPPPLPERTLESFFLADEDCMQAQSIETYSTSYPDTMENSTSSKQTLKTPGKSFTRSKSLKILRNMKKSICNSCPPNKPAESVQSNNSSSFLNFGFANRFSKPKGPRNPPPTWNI

[5] = biological target: T4, Dual specificity protein phosphatase 3 (Homo sapiens, UniProt P51452); experiment: VHR1 phosphatase inhibitors, primary screen, biochemical, absorbance, uHTS (AID 1654)
[6] = biological target: T4, Dual specificity protein phosphatase 3; experiment: SAR VHR1 absorbance Assay for In Vitro dose response studies. [Related pubchem assays (depositor defined):AID1654, AID1661, AID1878, AID1992, AID2004]
[7] = biological target: T4, Dual specificity protein phosphatase 3; experiment: SAR VHR1 Fluorescent Assay for In Vitro dose response studies. [Related pubchem assays (depositor defined):AID1654, AID1661, AID1878, AID1992, AID2004, AID2070, AID2085]; type: functional
[8] = biological target: Intestinal-type alkaline phosphatase (Homo sapiens, UniProt P09923); experiment: activation of human intestinal alkaline phosphatase – biochemical, dose response (AID 488873); type: functional
[9] = biological target: Intestinal-type alkaline phosphatase (Mus musculus, UniProt P24822); experiment: mouse intestinal alkaline phosphatase activators, dose response, biochemical, luminescence, uHTS hits (AID 488783); type: functional
[10] = inhibitors of SNCA 5'UTR-driven reporter translation, confirmation, H4 neuroglioma cells, luminescence (AID 1988); type: functional, cell-based
[11] = biological target: Paired box protein Pax-8 (Homo sapiens, UniProt Q06710); experiment: inhibitors of PAX8-driven TPO luciferase reporter, dose response, RMG-I cells, cherry-pick (AID 687027); type: functional, cell-based;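 note: luciferase reporter driven by Pax8 target thyroperoxidase promoter measured by SteadyGlo luminescence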
Paired box protein Pax-8, sequence (Q06710 whole entry): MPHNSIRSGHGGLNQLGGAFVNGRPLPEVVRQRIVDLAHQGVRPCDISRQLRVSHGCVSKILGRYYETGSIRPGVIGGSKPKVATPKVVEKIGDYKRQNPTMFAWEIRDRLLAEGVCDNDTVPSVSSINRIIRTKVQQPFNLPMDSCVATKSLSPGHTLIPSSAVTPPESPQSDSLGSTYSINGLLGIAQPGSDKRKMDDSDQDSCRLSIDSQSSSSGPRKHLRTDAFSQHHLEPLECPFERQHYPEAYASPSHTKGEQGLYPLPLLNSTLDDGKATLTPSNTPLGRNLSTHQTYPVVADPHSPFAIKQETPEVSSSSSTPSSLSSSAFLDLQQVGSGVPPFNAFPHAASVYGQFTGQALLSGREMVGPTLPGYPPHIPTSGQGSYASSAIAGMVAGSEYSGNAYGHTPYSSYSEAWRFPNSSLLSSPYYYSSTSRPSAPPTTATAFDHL

T4 sequence (P51452 whole entry): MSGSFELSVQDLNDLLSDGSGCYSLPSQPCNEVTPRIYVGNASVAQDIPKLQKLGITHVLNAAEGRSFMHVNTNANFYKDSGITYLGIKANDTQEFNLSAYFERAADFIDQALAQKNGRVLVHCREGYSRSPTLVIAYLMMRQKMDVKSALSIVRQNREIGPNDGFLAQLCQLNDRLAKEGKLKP
Intestinal-type alkaline phosphatase (Homo sapiens, UniProt P09923), sequence (P09923 whole entry): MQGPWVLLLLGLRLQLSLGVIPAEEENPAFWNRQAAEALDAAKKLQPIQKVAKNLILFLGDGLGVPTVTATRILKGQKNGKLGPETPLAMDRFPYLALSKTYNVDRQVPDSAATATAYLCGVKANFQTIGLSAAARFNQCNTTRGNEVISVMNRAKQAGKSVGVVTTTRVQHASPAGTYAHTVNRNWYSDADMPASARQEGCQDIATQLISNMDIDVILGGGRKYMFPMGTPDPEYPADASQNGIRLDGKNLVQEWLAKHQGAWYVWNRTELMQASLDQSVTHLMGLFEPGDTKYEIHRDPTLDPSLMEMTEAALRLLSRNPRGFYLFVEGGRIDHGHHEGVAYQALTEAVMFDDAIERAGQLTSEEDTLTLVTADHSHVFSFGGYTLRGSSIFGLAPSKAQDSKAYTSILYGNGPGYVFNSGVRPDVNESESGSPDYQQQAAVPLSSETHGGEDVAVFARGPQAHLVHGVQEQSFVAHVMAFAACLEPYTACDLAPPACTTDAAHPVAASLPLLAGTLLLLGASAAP
Intestinal-type alkaline phosphatase (Mus musculus, UniProt P24822), sequence (P24822 whole entry): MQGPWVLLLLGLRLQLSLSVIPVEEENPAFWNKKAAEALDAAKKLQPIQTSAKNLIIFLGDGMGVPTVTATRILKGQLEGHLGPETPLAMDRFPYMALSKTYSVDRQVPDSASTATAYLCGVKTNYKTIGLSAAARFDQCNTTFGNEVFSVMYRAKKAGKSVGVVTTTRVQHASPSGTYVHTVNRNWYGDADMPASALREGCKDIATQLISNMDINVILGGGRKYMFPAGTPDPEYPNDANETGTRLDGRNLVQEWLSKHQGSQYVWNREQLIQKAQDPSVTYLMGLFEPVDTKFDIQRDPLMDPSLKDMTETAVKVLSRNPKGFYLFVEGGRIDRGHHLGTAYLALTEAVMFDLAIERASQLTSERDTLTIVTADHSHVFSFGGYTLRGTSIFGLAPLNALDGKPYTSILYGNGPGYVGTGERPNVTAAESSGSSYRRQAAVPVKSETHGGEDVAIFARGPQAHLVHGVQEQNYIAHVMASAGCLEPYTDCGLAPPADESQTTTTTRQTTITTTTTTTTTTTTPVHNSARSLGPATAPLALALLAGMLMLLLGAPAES
Peroxisome proliferator-activated receptor gamma/Nuclear receptor corepressor 2, sequence (P37231 whole entry): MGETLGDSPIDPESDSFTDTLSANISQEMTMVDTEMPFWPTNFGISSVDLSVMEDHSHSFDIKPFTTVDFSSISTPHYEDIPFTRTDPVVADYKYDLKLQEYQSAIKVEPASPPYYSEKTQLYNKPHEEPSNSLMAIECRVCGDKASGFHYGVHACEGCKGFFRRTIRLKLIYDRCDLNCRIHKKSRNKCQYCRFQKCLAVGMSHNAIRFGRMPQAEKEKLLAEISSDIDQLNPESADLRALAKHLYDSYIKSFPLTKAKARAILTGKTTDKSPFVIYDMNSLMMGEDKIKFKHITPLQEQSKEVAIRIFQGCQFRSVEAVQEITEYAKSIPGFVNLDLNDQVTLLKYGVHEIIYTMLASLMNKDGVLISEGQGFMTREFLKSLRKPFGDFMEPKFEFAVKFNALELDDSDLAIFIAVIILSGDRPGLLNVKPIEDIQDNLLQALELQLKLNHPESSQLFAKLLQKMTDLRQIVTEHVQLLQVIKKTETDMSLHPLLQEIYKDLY
Peroxisome proliferator-activated receptor gamma/Nuclear receptor corepressor 2, sequence (Q9Y618 whole entry): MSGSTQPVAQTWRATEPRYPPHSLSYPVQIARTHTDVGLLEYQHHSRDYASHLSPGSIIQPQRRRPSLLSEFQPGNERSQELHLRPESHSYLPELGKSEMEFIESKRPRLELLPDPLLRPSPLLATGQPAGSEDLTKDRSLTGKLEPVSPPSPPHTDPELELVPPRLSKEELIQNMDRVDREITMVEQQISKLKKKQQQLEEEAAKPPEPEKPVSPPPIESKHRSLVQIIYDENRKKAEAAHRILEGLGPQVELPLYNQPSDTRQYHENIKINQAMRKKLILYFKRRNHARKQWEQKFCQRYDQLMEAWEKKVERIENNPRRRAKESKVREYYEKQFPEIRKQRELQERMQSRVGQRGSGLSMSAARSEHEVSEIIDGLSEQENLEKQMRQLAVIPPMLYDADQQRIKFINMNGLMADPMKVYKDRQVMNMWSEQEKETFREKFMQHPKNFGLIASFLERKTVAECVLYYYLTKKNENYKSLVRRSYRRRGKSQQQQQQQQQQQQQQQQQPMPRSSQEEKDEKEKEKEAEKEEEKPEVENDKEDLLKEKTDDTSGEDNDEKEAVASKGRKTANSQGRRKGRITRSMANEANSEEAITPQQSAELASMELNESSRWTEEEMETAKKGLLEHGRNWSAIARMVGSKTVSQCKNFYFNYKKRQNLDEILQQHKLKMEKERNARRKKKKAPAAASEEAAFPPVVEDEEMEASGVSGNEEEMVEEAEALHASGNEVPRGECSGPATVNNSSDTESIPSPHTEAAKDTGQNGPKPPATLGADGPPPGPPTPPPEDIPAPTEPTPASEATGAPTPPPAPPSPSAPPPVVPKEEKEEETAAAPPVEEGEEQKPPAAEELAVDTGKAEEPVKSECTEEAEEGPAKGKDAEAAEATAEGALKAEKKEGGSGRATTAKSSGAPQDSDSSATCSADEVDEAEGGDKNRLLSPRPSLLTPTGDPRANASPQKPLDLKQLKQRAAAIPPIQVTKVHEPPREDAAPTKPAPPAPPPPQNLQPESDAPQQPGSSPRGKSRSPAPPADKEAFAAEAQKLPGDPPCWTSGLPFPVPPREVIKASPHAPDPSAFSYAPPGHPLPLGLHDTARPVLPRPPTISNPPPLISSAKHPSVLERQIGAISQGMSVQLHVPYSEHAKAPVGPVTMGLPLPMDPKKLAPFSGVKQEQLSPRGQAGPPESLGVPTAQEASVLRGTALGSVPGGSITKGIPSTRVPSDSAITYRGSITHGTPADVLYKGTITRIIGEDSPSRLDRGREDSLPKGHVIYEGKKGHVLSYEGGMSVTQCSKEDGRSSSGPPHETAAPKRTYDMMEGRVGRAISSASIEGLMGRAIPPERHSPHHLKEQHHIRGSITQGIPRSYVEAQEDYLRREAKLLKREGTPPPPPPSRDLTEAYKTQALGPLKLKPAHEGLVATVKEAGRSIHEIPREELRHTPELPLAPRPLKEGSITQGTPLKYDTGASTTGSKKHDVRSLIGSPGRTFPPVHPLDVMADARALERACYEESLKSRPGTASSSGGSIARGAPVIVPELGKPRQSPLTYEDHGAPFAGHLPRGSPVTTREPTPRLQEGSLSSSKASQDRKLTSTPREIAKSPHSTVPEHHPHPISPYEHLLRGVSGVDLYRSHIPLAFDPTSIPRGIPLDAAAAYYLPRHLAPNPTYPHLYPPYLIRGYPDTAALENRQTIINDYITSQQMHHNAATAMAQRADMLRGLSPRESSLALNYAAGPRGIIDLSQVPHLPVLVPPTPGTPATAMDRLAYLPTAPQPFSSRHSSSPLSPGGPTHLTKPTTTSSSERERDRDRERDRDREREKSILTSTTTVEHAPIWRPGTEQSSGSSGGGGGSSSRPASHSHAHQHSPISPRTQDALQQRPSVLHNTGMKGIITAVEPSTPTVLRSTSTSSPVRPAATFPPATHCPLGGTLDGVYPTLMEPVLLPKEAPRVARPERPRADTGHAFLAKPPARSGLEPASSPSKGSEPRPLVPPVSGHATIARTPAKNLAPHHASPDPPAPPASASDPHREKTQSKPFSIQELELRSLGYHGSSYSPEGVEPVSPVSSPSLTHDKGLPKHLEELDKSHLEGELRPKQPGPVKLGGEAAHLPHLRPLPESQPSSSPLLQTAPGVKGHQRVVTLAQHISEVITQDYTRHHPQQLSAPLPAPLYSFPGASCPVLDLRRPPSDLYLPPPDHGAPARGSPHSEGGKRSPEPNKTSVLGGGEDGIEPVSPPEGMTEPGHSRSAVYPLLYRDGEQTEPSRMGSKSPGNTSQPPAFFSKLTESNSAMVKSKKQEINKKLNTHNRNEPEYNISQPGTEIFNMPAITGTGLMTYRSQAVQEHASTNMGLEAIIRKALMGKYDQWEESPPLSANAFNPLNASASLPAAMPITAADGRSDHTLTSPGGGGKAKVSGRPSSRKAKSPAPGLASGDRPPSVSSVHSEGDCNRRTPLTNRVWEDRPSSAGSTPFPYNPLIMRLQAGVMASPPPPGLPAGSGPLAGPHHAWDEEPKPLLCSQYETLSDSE

CCOC(=O)C1=C(C)OC2(O)c3ccccc3C(=O)C12O (stereo unspecified)
IC50 [1]: 0.428 µM (active)

COC(=O)c1cc(C)nc2c1C(=O)C(=O)C=C2N1CCOCC1
IC50 [2]: > 39.8 µM (not active)
IC50 [3]: 4.41 µM (active)

N#Cc1c(N2CCCC2)nc(N)c2c(N)nc(N3CCCC3)cc12
IC50 [4]: > 79.4 µM (inactive)

NS(=O)(=O)c1cc(C(=O)NC2CCSc3ccccc32)ccc1Cl (stereo unspecified)
IC50 [5]: < 1.23 µM (inactive)
IC50 [6]: 0.121 µM (active)
IC50 [7]: 0.065 µM (active)
EC50 [8]: 49.4 µM (active)
EC50 [9]: 5.57 µM (active)

O=C1c2ccccc2C(=O)c2[nH]c(O)nc21
EC50 [10]: 4.26 µM (active)
AC50 [11]: 5.72 µM (active)
